Tests used:
MDA-MB-231 = assay: MTT antiproliferation assay in MDA-MB-231 cells; format: cell-based; settings: Homo sapiens, concentration that limits growth by 50%, 72 hour incubation, mean ± SD, at least two experiments in duplicate
Method: (§1) The newly synthesized selectively mono-N-acylated compounds of series 4 and series 7 were evaluated as potential anticancer agents because compound 1 had been previously shown to display anticancer activity by inhibiting DHFR (Kuyper L F et al, J Med Chem 39, 892-903 (1996); incorporated by reference herein). Compounds of series 2 were not evaluated due to their poor solubility in DMSO. Two triple negative breast cancer (TN BC) cell lines (MDA-MB-231 and MDAMB-468) were selected to evaluate potential anticancer activity of the compounds of series 4 and series 7 by an MTT assay (Li B X et al, Bioorg Med Chem 20, 6811-6820 (2012); incorporated by reference herein.) TNBC represents a unique subtype of breast cancer clinically characterized by the lack of expression of estrogen receptor (ER), progesterone receptor (PR) and human epidermal growth factor receptor 2 (HER2). Subjects with triple negative breast cancer often have a poor prognosis (Kang S P et al, Curr Opin Obstet Gynecol 20, 40-46 (2008) and The Cancer Genome Atlas Network Nature, 490, 61-70 (2012); both of which are incorporated by reference herein). Current treatment options for TNBC are limited and novel agents are needed (Shastry M and Yardley D A, Curr Opin Obstet Gynecol 25, 40-48 (2013); incorporated by reference herein).
(§2) GI50 values represent the concentration that limits the growth of the cancer cells by 50% during a 72 hour incubation period. These are presented as mean±standard deviation of the mean of at least two independent experiments performed in duplicate.
(§3) TMTT assays for MDA-MB-231, MDA-MB-468 and HMEC were performed as described in Li et al, 2012 supra.

MDA-MB-468 = assay: MTT antiproliferation assay in MDA-MB-468 cells; format: cell-based; settings: Homo sapiens, concentration that limits growth by 50%, 72 hour incubation, mean ± SD, at least two experiments in duplicate
Method: as §1, §2, §3

[1] = Stability in HPLC mobile phase containing TFA; format: physicochemical; settings: HPLC mobile phase water/acetonitrile with 0.1% TFA
Method: The solvents used for each reaction were purified from the Glass Contout solvent purification system. Melting points were determined in capillary tubes using MeI-Temp and are uncorrected. NMR spectra were recorded at 400 MHz (^1H NMR) and 100 MHz (^13C NMR). Chemical shifts (δ) are reported in ppm relative to the residual CHCl3 (1H, 7.26 ppm, 13C, 77.0 ppm) or DMSO (1H, 2.50 ppm, 13C, 39.5 ppm). The following abbreviations were used to describe the splitting pattern of individual peaks if applicable: s=singlet, d=doublet, t=triplet, q=quartet, m=multiplet. The coupling constants (J) were reported in Hertz (Hz). Silica gel flash chromatography was performed using 230-400 mesh silica gel (EMD). The mass spectra were obtained from an LTQ Orbitrap Discovery mass spectrometer (Thermo Scientific, West Palm Beach, Fla.) with electrospray operated either in positive or negative mode. All final compounds were confirmed to be of >95% purity based on HPLC (Waters) analysis using an XBridge C18 column (4.6×150 mm) and detected at 254 nm (due to the poor solubility, compound 2a-2d were not evaluated by HPLC). The mobile phases for HPLC are water and acetonitrile, both of which contain 0.1% TFA (for compounds 2e, 4e, and 7e which contain a TBS group, 0.01% TFA was used due to instability of these compounds in 0.1% TFA).

Solubility observations = format: physicochemical; settings: high-quality 13C NMR spectra could not be obtained
[2] = test system: normal human mammary epithelial cells (HMEC); assay: MTT viability assay in normal human mammary epithelial cells; format: cell-based
Method: FIG. 2 is a plot showing the effect of compound 7f on normal human mammary epithelial cells (HMEC.) HMEC were treated with the indicated concentrations of doxorubicin or 7f for 24 or 72 hours as indicated. Cells treated for 24 hours were further incubated in drug free media for 48 hours. The number of viable cells was determined by an MTT assay.
as §3

human DHFR = biological target: T1, human DHFR (Homo sapiens, UniProt P00374); assay: In vitro human DHFR inhibition; format: biochemical; settings: DHFR assay kit, NADPH 60 μM, DHF 50 μM
T1 construct: purchased Sigma
T1 sequence (P00374 1-187): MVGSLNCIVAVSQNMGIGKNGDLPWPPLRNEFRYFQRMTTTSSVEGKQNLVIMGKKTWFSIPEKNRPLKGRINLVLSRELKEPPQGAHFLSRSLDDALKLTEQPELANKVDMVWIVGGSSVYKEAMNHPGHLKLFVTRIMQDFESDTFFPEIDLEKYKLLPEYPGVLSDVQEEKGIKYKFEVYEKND
Method: The human DHFR assay was done with DHFR assay kit (Sigma) following the manufacturer's instructions with minor modifications. Different concentrations of a test compound were incubated with human DHFR (0.1875 mU) and NADPH (60 μM) in the 1× assay buffer for 2 min at room temperature. Then DHF (50 μM) was added to initiate the reduction reaction, which was immediately monitored by absorbance at 340 nm every 12 s for 3 min. The final reaction volume was 100 μL and the final DMSO concentration was 1%. The reaction velocities were calculated as the slopes from the absorbance-time curves.

[3] = test system: CREB-mediated gene transcription; assay: CREB reporter assay (CRE-RLuc) in HEK 293T cells; format: cell-based, human; settings: forskolin 10 μM
Method: FIG. 4 is a plot showing the activity of compound 7f on CREB mediated gene transcription in HEK 293T cells. HEK 293T cells were transfected with a CREB renilla luciferase reporter (CRE-RLuc). Then the cells were treated with increasing concentrations of 7f for 30 min before the addition of forskolin at a final concentration of 10 μM. The cells were further incubated for 5 hours before cell lysis and renilla luciferase activity measurement. The renilla luciferase activity was normalized to the protein concentration of the cell lysates and was expressed as relative luciferase unit (RLU)/μg of proteins.
Inhibition of CREB mediated transcription in HEK 293T cells by a CREB reporter assay was performed as described in Li and Xiao, 2009 supra.

LMNA/C = assay: Chemoproteomic pulldown with probe 10 and Western blot, LMNA/C; format: binding, human; settings: MDA-MB-468 cells, photocrosslinking, streptavidin pulldown, Western blot
Method: (§4) FIG. 5A is a schematic diagram of chemoproteomics experiments described in Example 38 below. MDA-MB-468 cells were treated with probe 10 with or without compound 7f. Then the cells were irradiated by UV followed by cell lysis. The lysates were clicked with a biotin-N3. The biotinylated proteins were pulled down with streptavidin beads. The bound proteins were trypsin-digested for LC-MS/MS analysis or eluted for Western analysis.
(§5) FIG. 5B is an image of a Western blot showing that 7f binds LMNA and LMNB1. The proteins from streptavidin-pulldown prepared as shown in FIG. 5A were subjected to Western blot with antibodies specific for the proteins indicated by the arrows to the right of the figure.
(§6) Unbiased chemical proteomics experiments involving photocrosslinking MDA-MB-468 cells treated with probe compound 10, clicking with a biotin-azide (biotin-N3), streptavidin pulldown and mass spectroscopic analyses identified nuclear lamins as the molecular targets of 7f. Nuclear lamins are type V intermediate filament proteins. In humans, there are three lamin genes (LMNA, LMNB1 and LMNB2) encoding four major proteins: LMNA, LMNC, LMNB1 and LMNB2. To further confirm that lamins are the targets, the biotinylated proteins prepared as shown in FIG. 5A were pulled down and analyzed by Western blot with individual antibodies (FIG. 5B).

LMNB1 = biological target: T2, LMNB1 (Homo sapiens, UniProt P20700); assay: Chemoproteomic pulldown with probe 10 and Western blot, LMNB1; format: binding; settings: MDA-MB-468 cells, photocrosslinking, streptavidin pulldown, Western blot
T2 construct: endogenous in cells; host or cells: MDA-MB-468
T2 sequence (P20700 1-586): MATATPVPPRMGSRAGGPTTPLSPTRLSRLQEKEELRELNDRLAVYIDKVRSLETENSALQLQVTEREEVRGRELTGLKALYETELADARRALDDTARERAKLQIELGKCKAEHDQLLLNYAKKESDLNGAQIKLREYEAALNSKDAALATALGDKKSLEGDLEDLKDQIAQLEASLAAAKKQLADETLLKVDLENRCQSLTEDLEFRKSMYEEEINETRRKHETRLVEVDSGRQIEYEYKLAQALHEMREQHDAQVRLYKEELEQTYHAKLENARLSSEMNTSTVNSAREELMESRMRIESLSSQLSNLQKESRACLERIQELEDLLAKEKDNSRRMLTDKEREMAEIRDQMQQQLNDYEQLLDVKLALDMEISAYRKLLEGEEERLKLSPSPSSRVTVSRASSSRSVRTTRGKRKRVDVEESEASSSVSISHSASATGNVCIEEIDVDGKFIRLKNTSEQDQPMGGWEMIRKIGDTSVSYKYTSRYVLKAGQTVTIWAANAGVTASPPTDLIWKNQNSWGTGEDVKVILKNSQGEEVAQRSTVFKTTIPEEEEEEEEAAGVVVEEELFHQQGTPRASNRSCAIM
Method: as §4, §5, §6

Structure (SMILES)	GI50 (MDA-MB-231) [µM]	GI50 (MDA-MB-468) [µM]	melting point [°C]	also measured
CCCCOc1cc2ccccc2cc1C(=O)Nc1nc(N)c2c(ccc3[nH]ccc32)n1 [Compound 7g, N-(1-Amino-7H-pyrrolo[3,2-f]quinazolin-3-yl)-3-butoxy-2-naphthamide]	0.65 ± 0.43	0.1 ± 0.079	–	–
CC(C)C(=O)n1ccc2c3c(N)nc(N)nc3ccc21 [Compound 2d]	–	–	200 to 202	–
CCCC(=O)Nc1nc(N)c2c(ccc3[nH]ccc32)n1 [Compound 7c]	25.5 ± 9.93	27.4 ± 4.52	262 to 264	–
CC(C)(C)[Si](C)(C)OCCCCC(=O)n1ccc2c3c(N)nc(N)nc3ccc21 [Compound 2e]	–	–	173 to 175	stability in 0.1% TFA [1]: instability
CCC(=O)Nc1nc(N)nc2ccc3[nH]ccc3c12 [Compound 4b]	18.7 ± 2.24	20.3 ± 7.4	226 to 228	–
Nc1nc(NC(=O)c2ccc3ccccc3c2)c2c(ccc3[nH]ccc32)n1 [Compound 4f]	8.46 ± 2.56	8.91 ± 1.28	–	–
CC(C)C(=O)Nc1nc(N)c2c(ccc3[nH]ccc32)n1 [Compound 7d]	39.7 ± 22.5	29.8 ± 8.41	288 to 290	–
CCC(=O)n1ccc2c3c(N)nc(N)nc3ccc21 [Compound 2b]	–	–	210 to 212	solubility (13C NMR sample) (Solubility observations): so limited
Nc1nc(NC(=O)c2ccc3ccccc3c2)nc2ccc3[nH]ccc3c12 [Compound 7f]	1.6	0.44	234 to 236	concentration up to which not toxic to normal HMEC ([2]; 72-h incubation): ≥ 5000 nM; concentration up to which human DHFR is not inhibited (human DHFR): ≥ 10 µM; concentration up to which CREB-mediated gene transcription is not inhibited [3]: ≥ 10 µM; competition of probe 10 pulldown of LMNA/C (LMNA/C): competed; competition of probe 10 pulldown of LMNB1 (LMNB1): competed
CC(=O)Nc1nc(N)nc2ccc3[nH]ccc3c12 [Compound 4a]	32.6 ± 14	56.5 ± 18	236 to 238	–
CC(C)(C)[Si](C)(C)OCCCCC(=O)Nc1nc(N)nc2ccc3[nH]ccc3c12 [Compound 4e]	15.6 ± 7.66	11.1 ± 1.73	172 to 174	stability in 0.1% TFA [1]: instability
CC(C)(C)[Si](C)(C)OCCCCC(=O)Nc1nc(N)c2c(ccc3[nH]ccc32)n1 [Compound 7e]	2.43 ± 0.13	2.24 ± 0.4	140 to 142	stability in 0.1% TFA [1]: instability
COc1cccc2c1C(=O)c1c(O)c3c(c(O)c1C2=O)C[C@@](O)(C(=O)CO)C[C@@H]3O[C@H]1C[C@H](N)[C@H](O)[C@H](C)O1 [Dox, doxorubicin, reference compound]	–	0.12	–	concentration toxic to normal HMEC cells ([2]; toxic at a concentration as low as): ≤ 100 nM
Nc1nc(N)c2c(ccc3[nH]ccc32)n1 [Compound 1, 7H-Pyrrolo[3,2-f]quinazoline-1,3-diamine, reference compound]	4.13 ± 0.54	3.34 ± 0.93	–	–
CC(=O)n1ccc2c3c(N)nc(N)nc3ccc21 [Compound 2a]	–	–	202 to 204	solubility (13C NMR sample) (Solubility observations): so limited
CC(=O)Nc1nc(N)c2c(ccc3[nH]ccc32)n1 [Compound 7a]	27.2 ± 11.4	53.5 ± 29.5	260 to 262	–
CC(C)C(=O)Nc1nc(N)nc2ccc3[nH]ccc3c12 [Compound 4d]	> 100	> 100	–	–
Nc1nc(N)c2c(ccc3c2ccn3C(=O)c2ccc3ccccc3c2)n1 [Compound 2f]	–	–	188 to 190	–
CCCC(=O)n1ccc2c3c(N)nc(N)nc3ccc21 [Compound 2c]	–	–	196 to 198	solubility (13C NMR sample) (Solubility observations): so limited
CCCC(=O)Nc1nc(N)nc2ccc3[nH]ccc3c12 [Compound 4c]	26.9 ± 12.9	26.3 ± 7.4	224 to 226	–
CCC(=O)Nc1nc(N)c2c(ccc3[nH]ccc32)n1 [Compound 7b]	21.4 ± 9.86	24.4 ± 3.33	228 to 230	–

Reference: patent publication US9133203B2, “Pyrroloquinazoline compounds” (OREGON HEALTH & SCIENCE UNIVERSITY, priority 2013, dated 2015)
